Experimental data taken from article PMC12028158, “Synthesis and In Vitro Evaluation of the Anticancer Effect of Novel Phosphonium Vindoline Derivatives” (International Journal of Molecular Sciences, 2025).
“Also recorded” adds a separate entry of the source. Like-named read-outs stand apart in the source and are kept apart here.

Key:
A2780 = assay: MTT antiproliferative assay; type: cell-based, human; settings: Homo sapiens, 72 h; for inhibition at 10 µM: A2780, 10 μM; for inhibition at 30 µM: A2780, 30 μM, read-out: Growth Inhibition (%) ± SEM (converted)
Experimental: (§1) The antiproliferative properties of the tested compounds were additionally determined using the MTT assay against a panel of human adherent cancer cell lines isolated from breast (MCF-7 and MDA-MB-231), cervical (HeLa and SiHa), and ovarian (A2780) tumors and also on the NIH/3T3 fibroblast cell line (Table 3). IC50 values were calculated from a wider concentration range (0.1–30 μM) when higher than 50% cell growth inhibition was obtained at 10 μM (Table 4). Cisplatin was used as a reference compound. […] The noncancerous fibroblast cell line NIH/3T3 was used to gather preliminary data regarding the cancer selectivity of vindolin derivatives. […] The tumor selectivity of compound 9g, expressed as the ratio of IC50 on cancer cells and fibroblasts, is substantially higher than that of cisplatin (Table 4).
(§2) The antiproliferative effects of the prepared derivatives were evaluated in vitro using the MTT assay against a panel of human adherent cancer cell lines, including breast (MDA-MB-231, MCF-7), cervical (SiHa, HeLa), and ovarian (A2780) cancer cells. The noncancerous fibroblast cell line NIH/3T3 was included to obtain data concerning the tumor selectivity of the test substances. All cell lines were sourced from the European Collection of Cell Cultures (Salisbury, UK), except for SiHa (American Tissue Culture Collection (Manassas, VA, USA). All cell lines were maintained in Eagle’s Minimal Essential Medium (EMEM) supplemented with 10% fetal bovine serum (FBS), 1% non-essential amino acids, and a mixture of penicillin, streptomycin, and amphotericin B. The cells were maintained in a humidified atmosphere containing 5% CO2 at 37 °C. The media and the cell culture supplements were procured from Capricorn Scientific Ltd. (Ebsdorfergrund, Germany). Cells were seeded into 96-well microplates at 5000/well and, the next day, treated with vindoline derivatives at two concentrations (10 or 30 μM) for 72 h under cell culturing conditions. […] When higher than 50% cell growth inhibition was observed, the assay was repeated using a wide concentration range (0.1–30 μM). The IC50 values were calculated using GraphPad Prism software 10.3.1 (GraphPad Software, San Diego, CA, USA). Two independent experiments were performed with at least five replicates per condition.

HeLa = assay: MTT antiproliferative assay; type: cell-based, human; settings: Homo sapiens, HeLa, 72 h; for inhibition at 10 µM: read-out: Growth Inhibition (%) ± SEM; for inhibition at 30 µM: read-out: Growth Inhibition (%) ± SEM (converted)
Experimental: as §1, §2

MCF-7 = assay: MTT antiproliferative assay; type: cell-based, human; settings: Homo sapiens, MCF7, 72 h; for inhibition at 30 µM: MCF-7, 30 μM, read-out: Growth Inhibition (%) ± SEM (converted)
Experimental: as §1, §2

MDA-MB-231 = assay: MTT antiproliferative assay; type: cell-based, human; settings: Homo sapiens, 72 h; for inhibition at 10 µM: MDA-MB-231, 10 μM; for inhibition at 30 µM: MDA-MB-231, 30 μM
Experimental: as §1, §2

SiHa = assay: MTT antiproliferative assay; type: cell-based, human; settings: SiHa, 72 h; for inhibition at 10 µM / inhibition at 30 µM: Homo sapiens
Experimental: as §1, §2

NIH/3T3 (fibroblast) = assay: MTT antiproliferative assay; type: cell-based; settings: Mus musculus, 72 h; for inhibition at 10 µM: NIH3T3, 10 μM, read-out: Growth Inhibition (%) ± SEM; for inhibition at 30 µM: NIH3T3, 30 μM, read-out: Growth Inhibition (%) ± SEM (converted)
Experimental: as §1, §2

[1] = tested on: panel of human adherent cancer cell lines; assay: MTT antiproliferative assay, whole cancer panel; type: cell-based; settings: for anticancer activity / cytotoxic effect (in words): MTT panel
Experimental: as §1, §2

[2] = tested on: 60 human tumor cell lines (NCI60); design: method as in PMID 39063170; settings: previous work; cited from earlier work
[3] = read-out: Growth Inhibition (%) ± SEM
[4] = read-out: Growth Inhibition (%) ± SEM (converted)
[5] = heading: Growth Inhibition ± SEM

Compound	inhibition at 30 µM (A2780)	inhibition at 10 µM (HeLa)	inhibition at 30 µM (HeLa)	inhibition at 30 µM (MCF-7)	inhibition at 10 µM (NIH/3T3 (fibroblast))	inhibition at 30 µM (NIH/3T3 (fibroblast))	anticancer activity / cytotoxic effect (in words) [1]	antiproliferative effects (in words) [2]	other results
CC[C@]12C=CCN3CC[C@@]4(c5cc(NC(=O)C[P+](c6ccccc6)(c6ccccc6)c6ccccc6)c(OC)cc5N(C)[C@H]4[C@@](O)(C(=O)OC)[C@@H]1OC(C)=O)[C@@H]32 [compound 16]	29.5%	21.7 ± 0.84%	30%	47.1%	24.9 ± 0.78%	27.5%	no cytotoxic effect; also recorded: no remarkable anticancer activity	–	inhibition at 10 µM (A2780; [3]): 19.4 ± 0.64%; inhibition at 10 µM (MCF-7; MCF-7, 10 μM, read-out: Growth Inhibition (%) ± SEM): 31.1 ± 3.1%; inhibition at 10 µM (MDA-MB-231; [3]): 12.64 ± 0.03%; inhibition at 30 µM (MDA-MB-231; [4]): 13.5%; inhibition at 10 µM (SiHa; [3]): 15 ± 0.34%; inhibition at 30 µM (SiHa; [4]): 36.8%
CC[C@]12C=CCN3CC[C@@]4(c5ccc(OC)cc5N(C)[C@H]4[C@@](O)(C(=O)OC)[C@@H]1OC(=O)CC(c1ccccc1)(c1ccccc1)c1ccccc1)[C@@H]32 [compound 13, 17-(O-3,3,3-Triphenylpropanoyl)vindoline]	11.9%	39.9 ± 2.57%	40.1%	20.8%	26.1 ± 1.55%	22.1%	no cytotoxic effect	–	inhibition at 10 µM (A2780; [5]): < 10%; inhibition at 10 µM (MDA-MB-231; [5]): < 10%; inhibition at 30 µM (MDA-MB-231; [5]): < 10%; inhibition at 10 µM (SiHa; [5]): < 10%; inhibition at 30 µM (SiHa; [5]): < 10%; antiproliferative effect (in words) ([1]; even at 30 μM): modest or negligible effect
CCC12C=CCN3CCC4(c5ccc(OC)cc5N(C)C4C(O)(C(=O)OC)C1OC(=O)CCCBr)C32 (centres unmarked) [compound 7, 17-(O-4-bromobutanoyl)vindoline]	–	–	–	–	–	–	–	do not exert antiproliferative effects	–
N.N.[Cl][Pt][Cl] [Cisplatin, reference compound]	–	–	–	–	–	–	–	–	IC50 (SiHa; MTT, read-out: IC50 Value (μM) ± SEM): 15.5 ± 0.93 µM
CCC12C=CCN3CCC4(c5ccc(OC)cc5N(C)C4C(O)(C(=O)OC)C1O)C32 (centres unmarked) [compound 6, 17-desacetylvindoline]	–	–	–	–	–	–	–	do not exert antiproliferative effects	–
